Starred links: 1 amine or outer side, 2 acyl side, 3 side chain; linkers in the order of their positions; H or OH if unused. Residues, ends and D or L forms follow the SMILES beside them. *: point of attachment. AMC = Cc1cc(=O)oc2cc(N*)ccc12; Suc = O=C(CCC(=O)[*:2])[*:1]
Target: T1, Mammalian 20S proteasome (bovine 20S) (Bos taurus, UniProt Q32KL2+Q3MHN0+Q3T0X5+Q5E987)
T1 construct: gene PSMB5; with Proteasome subunit beta type-1; Proteasome subunit beta type-2; Proteasome subunit beta type-3; Proteasome subunit beta type-4
Assay: fluorogenic peptide hydrolysis
Type: biochemical
Conditions: chymotrypsin-like activity; 100 uM substrate, pH 7.4

With Cc1cc(=O)oc2cc(NC(=O)[C@H](Cc3ccc(O)cc3)NC(=O)[C@@H](NC(=O)[C@H](CC(C)C)NC(=O)[C@H](CC(C)C)NC(=O)CCC(=O)O)C(C)C)ccc12 [suc-LLVY-amc] (Suc-LLVY-{AMC}) the fluorogenic peptide hydrolysis was “Proteasome activity (linear rate of LLVY-amc hydrolysis)”.

— paper PMC5854577, “A common mechanism of proteasome impairment by neurodegenerative disease-associated oligomers” (Nature Communications, 2018)
